# According to patent US12655116B2, “Substituted isophthalic acid diamides” (Bayer Aktiengesellschaft, priority 2020, dated 2026):
# Legend:
# DIGSA [1] = assay: Post-emergence herbicidal action against DIGSA; format: in vivo, Digitaria sanguinalis; settings: for Post-emergence action against DIGSA: 20 g/ha
# Outline: (§1)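 Spray, one-leaf stage: WP or EC compound in water, 600–800 l/ha, 0.2% wetting agent. Plants held about 3 weeks in the greenhouse, then visually rated in percent of kill compared with untreated controls.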
# VERPE [2] = assay: Post-emergence herbicidal action against VERPE; format: in vivo, Veronica persica
# Outline: as §1
# ECHCG [3] = assay: Post-emergence herbicidal action against ECHCG; format: in vivo, Echinochloa crus-galli
# Outline: as §1
# ABUTH [4] = assay: Post-emergence herbicidal action against ABUTH; format: in vivo, Abutilon theophrasti; settings: visual assessment about 3 weeks after treatment vs untreated controls
# Outline: as §1
# VIOTR [5] = assay: Pre-emergence herbicidal action against VIOTR; format: in vivo, Viola tricolor
# Outline: (§2)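 Pre-emergence soil-surface spray of formulated compound (WP or EC; 600 to 800 l/ha; 0.2% wetting agent) over seeds sown in sandy loam. After 3 weeks under greenhouse conditions, damage is estimated visually in percent against untreated plants.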
# ALOMY [6] = assay: Pre-emergence herbicidal action against ALOMY; format: in vivo, Alopecurus myosuroides; settings: 80 g/ha, pre-emergence, scored visually after 3 weeks vs untreated controls (100% = plants have died, 0% = like control plants)
# Outline: as §2
# DIGSA [7] = assay: Pre-emergence herbicidal action against DIGSA; format: in vivo, Digitaria sanguinalis
# Outline: as §2
# MATIN [8] = assay: Post-emergence herbicidal action against MATIN; format: in vivo, Matricaria inodora
# Outline: as §1
# POLCO = assay: Pre-emergence herbicidal action against POLCO; format: in vivo, Polygonum convolvulus
# Outline: as §2
# AMARE [9] = assay: Post-emergence herbicidal action against AMARE; format: in vivo, Amaranthus retroflexus; settings: 20 g/ha, visual assessment about 3 weeks after treatment, 100% = plants have died, 0% = like control plants
# Outline: as §1
# VERPE [10] = assay: Pre-emergence herbicidal action against VERPE; format: in vivo, Veronica persica
# Outline: as §2
# AMARE [11] = assay: Pre-emergence herbicidal action against AMARE; format: in vivo, Amaranthus retroflexus
# Outline: as §2
# SETVI [12] = assay: Pre-emergence herbicidal action against SETVI; format: in vivo, Setaria viridis; settings: dosage 80 g/ha
# Outline: as §2
# ALOMY [13] = assay: Post-emergence herbicidal action against ALOMY; format: in vivo, Alopecurus myosuroides; settings: dosage 20 g/ha, visual assessment about 3 weeks after treatment vs untreated controls
# Outline: as §1
# ABUTH [14] = assay: Pre-emergence herbicidal action against ABUTH; format: in vivo, Abutilon theophrasti; settings: for Pre-emergence action against ABUTH (herbicidal activity): 80 g/ha, scored visually after 3 weeks vs untreated controls (100% = plants have died, 0% = like control plants); for Pre-emergence action against ABUTH (herbicidal activity in percent): dosage 20 g/ha, scored visually after 3 weeks vs untreated controls, 100% = plants have died, 0% = like control plants
# Outline: as §2
# VIOTR [15] = assay: Post-emergence herbicidal action against VIOTR; format: in vivo, Viola tricolor
# Outline: as §1
# SETVI [16] = assay: Post-emergence herbicidal action against SETVI; format: in vivo, Setaria viridis; settings: dosage 20 g/ha
# Outline: as §1
# PHBPU [17] = assay: Pre-emergence herbicidal action against PHBPU; format: in vivo, Pharbitis purpurea; settings: dosage 80 g/ha
# Outline: as §2
# ECHCG [18] = assay: Pre-emergence herbicidal action against ECHCG; format: in vivo, Echinochloa crus-galli; settings: 80 g/ha
# Outline: as §2
# MATIN [19] = assay: Pre-emergence herbicidal action against MATIN; format: in vivo, Matricaria inodora
# Outline: as §2
# PHBPU [20] = assay: Post-emergence herbicidal action against PHBPU; format: in vivo, Pharbitis purpurea; settings: dosage 20 g/ha
# Outline: as §1
# AVEFA = assay: Pre-emergence herbicidal action against AVEFA; format: in vivo, Avena fatua; settings: 80 g/ha, pre-emergence
# Outline: as §2
# [21] = 20 g/ha, scored visually after 3 weeks vs untreated controls, 100% = plants have died, 0% = like control plants
# [22] = 80 g/ha, scored visually after 3 weeks vs untreated controls (100% = plants have died, 0% = like control plants)
SMILES,Post-emergence action against DIGSA (DIGSA [1]) [%],Post-emergence action against VERPE in % (VERPE [2]; 20 g/ha) [%],Post-emergence action against ECHCG in % (ECHCG [3]; dosage 5 g/ha) [%],Post-emergence action against ECHCG in % (ECHCG [3]; dosage 20 g/ha) [%],Post-emergence action against ABUTH in % (ABUTH [4]; dosage 20 g/ha) [%],Pre-emergence action against VIOTR in % (VIOTR [5]; dosage 80 g/ha) [%],Pre-emergence action against ALOMY (herbicidal activity) (ALOMY [6]) [%],Pre-emergence action against DIGSA in % (DIGSA [7]; dosage 20 g/ha) [%],Pre-emergence action against DIGSA in % (DIGSA [7]; dosage 80 g/ha) [%],Pre-emergence action against POLCO in % (POLCO; dosage 80 g/ha) [%],Pre-emergence action against VERPE in % (VERPE [10]; dosage 80 g/ha) [%],Pre-emergence action against AMARE in % (AMARE [11]; [21]) [%],Pre-emergence action against AMARE in % (AMARE [11]; [22]) [%],Pre-emergence action against SETVI in % (SETVI [12]) [%],Post-emergence action against ALOMY in % (ALOMY [13]) [%],Pre-emergence action against ABUTH (herbicidal activity) (ABUTH [14]) [%],Pre-emergence action against ABUTH (herbicidal activity in percent) (ABUTH [14]) [%],Pre-emergence action against PHBPU in % (PHBPU [17]) [%],Pre-emergence action against ECHCG in % (ECHCG [18]) [%],Pre-emergence action against MATIN in % (MATIN [19]; dosage 80 g/ha) [%],other results
CCn1nnnc1NC(=O)c1ccc(C(F)(F)F)c(C(=O)NCC2CC2)c1C1CC1 [Example 2-289],100,100,80,90,80,100,90,100,100,80,100,100,100,90,90,100,100,80,100,100,Post-emergence action against DIGSA in % (DIGSA [1]; 5 g/ha): 90%; Post-emergence action against VERPE in % (VERPE [2]; 5 g/ha): 80%; Pre-emergence action against VIOTR in % (VIOTR [5]; dosage 20 g/ha): 100%; Post-emergence action against MATIN in % (MATIN [8]; dosage 5 g/ha): 80%; Post-emergence action against MATIN in % (MATIN [8]; dosage 20 g/ha): 90%; Post-emergence action at 20 g/ha against AMARE in % (AMARE [9]): 100%; Post-emergence action against VIOTR in % (VIOTR [15]; 20 g/ha): 90%; Post-emergence action against SETVI in % (SETVI [16]): 80%; Pre-emergence action against MATIN in % (MATIN [19]; dosage 20 g/ha): 90%; Post-emergence action against PHBPU in % (PHBPU [20]): 90%
Cc1nnc(NC(=O)c2ccc(C(F)F)c(C(=O)NC(C)C3CC3)c2C)o1 (stereo not drawn) [Example 6-258],90,80,80,90,90,80,90,100,100,80,100,100,100,80,80,100,100,90,100,90,Post-emergence action against ABUTH in % (ABUTH [4]; dosage 5 g/ha): 80%; Post-emergence action at 20 g/ha against AMARE in % (AMARE [9]): 90%; Pre-emergence action against VERPE in % (VERPE [10]; dosage 20 g/ha): 90%
CCn1nnnc1NC(=O)c1ccc(Br)c(C(=O)NC(C)C2CC2)c1Cl (stereo not drawn) [Example 2-183],–,90,–,90,–,100,90,90,100,90,90,90,100,100,80,100,100,90,90,100,Pre-emergence action against AVEFA in % (AVEFA): 80%; Post-emergence action against MATIN in % (MATIN [8]; dosage 5 g/ha): 80%; Post-emergence action against MATIN in % (MATIN [8]; dosage 20 g/ha): 90%; Pre-emergence action against POLCO in % (POLCO; dosage 20 g/ha): 90%; Post-emergence action against VIOTR in % (VIOTR [15]; 5 g/ha): 100%; Post-emergence action against VIOTR in % (VIOTR [15]; 20 g/ha): 100%; Pre-emergence action against MATIN in % (MATIN [19]; dosage 20 g/ha): 90%; Post-emergence action against PHBPU in % (PHBPU [20]): 80%
